Experimental data taken from patent publication US5962424A, “Methods and compositions for targeting selectins” (Arch Development Corporation, priority 1995, dated 1999).

How the values were obtained:
[1] = tested on: HL60 cells / irradiated HUVECs; test: adherence of HL60 cells to irradiated HUVECs; type: cell-based, human; conditions: 1 mM; added 4 h after 10 Gy irradiation, 30 min prior to HL60 cells
Protocol: Human leukemia cell line HL60 has been used to quantify leukocyte adhesion to endothelial cells (Jones et al., 1995). HL60 cells were added to HUVECs after exposure to 10 Gy or cells treated with otherwise identical conditions without irradiation. Cultures were washed and cells were counted using a hemocytometer. […] Glycyrrhizin, carminic acid or sialyl Lewis X (1 mM each, SIGMA) were added to irradiated cells at 4 h after irradiation and 30 min prior to the addition of HL60 cells.

selectin = conditions: cited from earlier work; for blocking of selectin binding to sLe^x: in vitro
[2] = tested on: E-selectin production in irradiated HUVEC; test: x-ray-mediated E-selectin induction in HUVEC after inhibitor pretreatment (antibody labeling, flow cytometry); type: cell-based, human; conditions: H7 100 nM, staurosporin 10 nM, BPB 10 μM, mepacrine 20 μM added prior to irradiation
Protocol: HUVEC and HMEC cells were grown to 90% confluence and irradiated with a GE Maxitron x-ray generator as previously described (Hallahan et al., 1989). Cells were removed from flasks with 0.1% collagenase, 0.01% EDTA, 0.25% BSA and pelleted in 12×75 mm polystyrene tubes. The supernatant was discarded and the cells were incubated with primary IgG1 antibody (mouse anti-human ICAM-1 and E-selectin-1; R&D Systems, Inc., Minneapolis,MN) for 20 min at 4° C.
The cells were then rinsed with isotonic phosphate buffered saline (PBS), pelleted and incubated with FITC-conjugated secondary antibody (goat anti-mouse IgG1) for 20 min at 4° C. The fluorescently labeled cells were rinsed in PBS and fixed in PBS containing 0.01% paraformaldehyde.
Fluorescence activated cell sorting (FACS) analysis was utilized for quantitation of receptor expression of ICAM-1 and E-selectin on HUVEC. The Becton Dickinson FACScanner was used with Lysis II software. Forward and side scatter fluorescence data identified 10,000 viable endothelial cells in each experimental group for unlabeled cells, nonspecific-antibody-labelled cells, ICAM-1-labeled cells and E-selectin-labeled cells. Fluorescence data were then accumulated on each group of 10,000 cells at 530 nm, the wavelength emitted by FITC.
The fluorescence data were expressed as histograms of events versus log fluorescence and analyzed in comparison to the autofluorescence of unlabelled cells as well as the fluorescence of baseline ICAM-1 labelled or E-selectin-1 labeled cells as appropriate. During inhibition studies, PKC inhibitors H7 100 nM and staurosporin 10 nM or Phospholipase A2 inhibitors BPB 10 μM or mepacrine 20 μM were added to cell cultures 30 min prior to irradiation.
PKC participates in both NFkB activation and signal transduction initiated by ionizing radiation (Hallahan et al., 1991). Furthermore, PLA2 participates in free-radical and x-ray-mediated PKC activation and gene induction (Hallahan et al., 1991). To determine whether PLA2 or PKC activation is required for radiation-mediated E-selectin induction, the inventors added the PKC inhibitors H7 and staurosporin or the PLA2 inhibitors BPB or mepacrine to HUVEC […] prior to irradiation. Following irradiation, cells were scraped and E-selectin was quantified by antibody labeling and flow cytometry.

[3] = rats, oral; cited from earlier work
E-selectin = conditions: competitive binding assay, cited from earlier work

SMILES	adherence of HL60 cells to irradiated HUVECs [1]	radiation-mediated E-selectin production [2]	other results
CC(=O)N[C@H]1[C@H]([C@H](O)[C@H](O)CO)O[C@@](O[C@H]2[C@@H](O)[C@@H](CO)O[C@@H](O[C@H]3[C@H](O[C@@H]4O[C@@H](C)[C@@H](O)[C@@H](O)[C@@H]4O)[C@@H](NC(C)=O)C(O)O[C@@H]3CO)[C@@H]2O)(C(=O)O)C[C@@H]1O (stereo partly shown) [sialyl Lewis X, Neu5Acα2-3Galβ1-4[Fucα1-3]GlcNAc]	blocked the adherence		
Cc1c(C(=O)O)c(O)cc2c1C(=O)c1c(O)c([C@@H]3O[C@H](CO)[C@@H](O)[C@H](O)[C@H]3O)c(O)c(O)c1C2=O [carminic acid]	blocked the adherence		blocking of selectin binding to sLe^x (selectin): blocked selectin binding at concentrations comparable to those of glycyrrhizin
CC1CNCCN1S(=O)(=O)c1cccc2cnccc12 (stereo not shown) [H7]		not attenuated	
CC1(C)[C@@H](O)CC[C@]2(C)[C@H]3C(=O)C=C4[C@@H]5C[C@@](C)(C(=O)O)CC[C@]5(C)CC[C@@]4(C)[C@]3(C)CC[C@@H]12 [18-β-glycyrrhetinic acid]			IC50 (selectin; read-out: IC50 (blocking selectin activity)): > 2000 µM
CCN(CC)CCCC(C)Nc1c2ccc(Cl)cc2nc2ccc(OC)cc12 (stereo not shown) [mepacrine]		not attenuated	
CC1(C)[C@@H](O[C@H]2O[C@H](C(=O)O)[C@@H](O)[C@H](O)[C@H]2O[C@@H]2O[C@H](C(=O)O)[C@@H](O)[C@H](O)[C@H]2O)CC[C@]2(C)[C@H]3C(=O)C=C4[C@@H]5C[C@@](C)(C(=O)O)CC[C@]5(C)CC[C@@]4(C)[C@]3(C)CC[C@@H]12 [Glycyrrhizin]	blocked the adherence		blocking of selectin binding to sLe^x (selectin): block selectin binding; absorption from the gut [3]: poorly absorbed
CN[C@@H]1C[C@H]2O[C@@](C)([C@@H]1OC)n1c3ccccc3c3c4c(c5c6ccccc6n2c5c31)C(=O)NC4 [staurosporin]		not attenuated	
O=C(CBr)c1ccc(Br)cc1 [BPB]		not attenuated	
COC(=O)CCCCCCCCO[C@@H]1O[C@H](CO)[C@@H](O[C@@H]2O[C@@H](C)[C@@H](O)[C@@H](O)[C@@H]2O)[C@H](O[C@@H]2O[C@H](CO)[C@H](O)[C@H](O[C@]3(C(=O)O)C[C@H](O)[C@@H](NC(C)=O)[C@H]([C@H](O)[C@H](O)CO)O3)[C@H]2O)[C@H]1N [amino substituted sLe^a]			activity relative to the reducing tetrasaccharide sLe^x (E-selectin): 36 fold; IC50 (E-selectin; read-out: IC50 (blocking of E-selectin)): 21 ± 3 µM
